Reference: the C3SDB collision cross section collection

conditions: [M+H-H2O]+; instrument: TW; calibrated with polyalanine and drug standards

With NS(=O)(=O)c1cc(C2(O)NC(=O)c3ccccc32)ccc1Cl (configuration not stated) [CHLORTHALIDONE] the “collision cross section (N2)” value was 166.7 Å².

same assay, conditions: [M+H]+; instrument: TW; calibrated with polyalanine and drug standards

Point of comparison: CN1C(C(=O)Nc2ccccn2)=C(O)c2ccccc2S1(=O)=O [PIROXICAM], “collision cross section (N2)” value 170.7 Å². Against it:
- CC(=O)O[C@H]1C[C@H](O[C@H]2[C@@H](O)C[C@H](O[C@H]3[C@@H](O)C[C@H](O[C@H]4CC[C@@]5(C)[C@H](CC[C@@H]6[C@@H]5C[C@@H](O)[C@]5(C)[C@@H](C7=CC(=O)OC7)CC[C@]65O)C4)O[C@@H]3C)O[C@@H]2C)O[C@H](C)[C@H]1O[C@@H]1O[C@H](CO)[C@@H](O)[C@H](O)[C@H]1O [LANATOSIDE C] — higher, 289.4 Å²
- O=C1OC(c2ccc(O)cc2)(c2ccc(O)cc2)c2ccccc21 [PHENOLPHTHALEIN] — higher, 172.1 Å²
- CC(=O)O[C@H]1CC[C@@]2(C)C(C[C@@H](OC(C)=O)[C@@]3(C)C4=CC(=O)O[C@@H](c5ccoc5)[C@]4(C)CCC23)C1(C)C (stereo partly drawn) [3-DEOXO-3beta-ACETOXYDEOXYDIHYDROGEDUNIN] — higher, 219.7 Å²
- COC(=O)[C@H](Cc1ccccc1)NC(=O)[C@@H](N)CC(=O)O [ASPARTAME] — lower, 167.6 Å²
- C/C=C/C(=O)N(CC)c1ccccc1C [CROTAMITON] — lower, 145.1 Å²
- Nc1nc(=O)c2ncn(COCCO)c2[nH]1 [ACYCLOVIR] — lower, 146.5 Å²
- CO[C@@H]1[C@@H](OC2OC(C)C(OC3CC(C)(O)C(O)C(C)O3)C(N(C)C)C2O)[C@@H](CC=O)C[C@@H](C)[C@@H](OC2CCC(N(C)C)C(C)O2)/C=C/C=C/C[C@@H](C)OC(=O)C[C@H]1O (some centres not stated) [SPIRAMYCIN] — higher, 317 Å²
- CCOc1ccc(NC(C)=O)cc1 [PHENACETIN] — lower, 140.5 Å²
- CCN1CCN(c2cc3c(cc2F)c(=O)c(C(=O)O)cn3C2CC2)CC1 [ENROFLOXACIN] — higher, 190.6 Å²
- COC(=O)Nc1nc2ccc(Sc3ccccc3)cc2[nH]1 [FENBENDAZOLE] — higher, 170.8 Å²
- CO[C@H]1/C=C/O[C@@]2(C)Oc3c(C)c(O)c4c(O)c(c5c(nc6cc(C)ccn65)c4c3C2=O)NC(=O)/C(C)=C\C=C\[C@H](C)[C@H](O)[C@@H](C)[C@@H](O)[C@@H](C)[C@H](OC(C)=O)[C@@H]1C [RIFAXIMIN] — higher, 267.8 Å²
- CCCCC(=O)O[C@]1(C(=O)CO)CC[C@H]2[C@@H]3CCC4=CC(=O)CC[C@]4(C)[C@H]3[C@@H](O)C[C@@]21C [HYDROCORTISONE VALERATE] — higher, 212.5 Å²
- CC1(C)O[C@@H]2C[C@H]3[C@@H]4CCC5=CC(=O)C=C[C@]5(C)[C@@]4(F)[C@@H](O)C[C@]3(C)[C@]2(C(=O)CO)O1 [TRIAMCINOLONE ACETONIDE] — higher, 197.1 Å²
- COc1ccc(-c2oc3cc(OC)c(OC)c(OC)c3c(=O)c2OC)cc1OC [HEXAMETHYLQUERCETAGETIN] — higher, 191.2 Å²
- Cc1c(NC(=O)c2cccnc2)c(=O)n(-c2ccccc2)n1C [NIFENAZONE] — higher, 172.5 Å²
- CCCn1cnc2c1c(=O)n(CCCCC(C)=O)c(=O)n2C [PROPENTOFYLLINE] — lower, 168.3 Å²
- CC1(C)C2C[C@@H](O)[C@]3(C)C(CC[C@@]4(C)[C@H](c5ccoc5)OC(=O)[C@H]5O[C@]543)[C@@]2(C)[C@@H](O)C[C@H]1O (some centres not stated) [TRIDESACETOXYKHIVORIN] — higher, 201.5 Å²
- CCCc1cc(OC)c2c(c1)OCO2 [DIHYDROMYRISTICIN] — lower, 128.7 Å²
- O=C(O[C@@H]1Cc2c(O)cc(O)cc2O[C@@H]1c1ccc(O)c(O)c1)c1cc(O)c(O)c(O)c1 [EPICATECHIN MONOGALLATE] — higher, 202.9 Å²
- CN(CCOc1ccc(CC2SC(=O)NC2=O)cc1)c1ccccn1 (configuration not stated) [ROSIGLITAZONE] — higher, 172.6 Å²
- c1cncc(C2=NCCC2)c1 [MYOSMINE] — lower, 128.2 Å²
- O=c1cc(-c2ccccc2)oc2cc(O)c(O)c(O)c12 [BAICALEIN] — lower, 153.8 Å²
- CC1=CC2C(C(C)C)CCC(C)(O)C2CC1 (configuration not stated) [CADIN-4-EN-10-OL] — lower, 145.9 Å²
- Cc1c(NC(C)C)c(=O)n(-c2ccccc2)n1C [RAMIFENAZONE] — lower, 156.5 Å²
- CC(=O)OCC1(O)CC23CCC4c5ccoc5CCC4(C)C2CCC1C3 (configuration not stated) [CAFESTOL ACETATE] — lower, 169.3 Å²
- OC[C@@H](O)[C@H]1O[C@@H]2O[C@H](C(Cl)(Cl)Cl)O[C@@H]2[C@H]1O [CHLORALOSE] — lower, 163.2 Å²
- CC[C@@H](C)C(=O)O[C@H]1[C@H](O)[C@H]2[C@@H](CN3C[C@@H](C)CC[C@H]3[C@@]2(C)O)[C@@H]2C[C@]34O[C@]5(O)[C@@H](OC(=O)[C@](C)(O)[C@@H](C)O)CC[C@@]3(C)[C@@H]5[C@@H](OC(C)=O)[C@@H](OC(C)=O)[C@H]4[C@@]21O [PROTOVERATRINE B] — higher, 287 Å²
- COc1c2ccoc2cc2oc(C)cc(=O)c12 [VISNAGIN] — lower, 139.1 Å²
- COc1cc2c(c(OC)c1OC)-c1ccc(OC)c(=O)cc1[C@@H](NC(C)=O)CC2 [COLCHICINE] — higher, 194.5 Å²
- CC(=O)OC1CN2CCC1CC2 (configuration not stated) [ACECLIDINE] — lower, 136.2 Å²
- C=C(C)[C@H]1Cc2c(ccc3c2O[C@@H]2COc4cc(OC)c(OC)cc4[C@@H]2C3=O)O1 [ROTENONE] — higher, 193.2 Å²
- CN1CCN(C(c2ccccc2)c2ccccc2)CC1 [CYCLIZINE] — lower, 164.8 Å²
- C/C=C/c1ccc2c(c1)OCO2 [ISOSAFROLE] — lower, 138.4 Å²
- CC(=O)OCC(=O)[C@@]1(O)CC[C@H]2[C@@H]3CCC4=CC(=O)CC[C@]4(C)[C@H]3C(=O)C[C@@]21C [CORTISONE ACETATE] — higher, 196.5 Å²
- CCCc1cc(C(N)=S)ccn1 [PROTIONAMIDE] — lower, 141.3 Å²
- CCOC(=O)c1cncn1C(C)c1ccccc1 (configuration not stated) [ETOMIDATE] — lower, 155.9 Å²
- Cc1nc(-c2ccc(OCC(C)C)c(C#N)c2)sc1C(=O)O [FEBUXOSTAT] — higher, 180.6 Å²
- COc1ccc(-c2cc(C(F)F)nn2-c2ccc(S(N)(=O)=O)cc2)cc1F [DERACOXIB] — higher, 189.9 Å²
- C[C@H](CCC(=O)O)[C@H]1CC[C@H]2[C@@H]3CC[C@@H]4C[C@H](O)CC[C@]4(C)[C@H]3CC[C@]12C [LITHOCHOLIC ACID] — higher, 210.8 Å²
- COc1cc(-c2coc3cc(OCc4ccccc4)c(OC)c(O)c3c2=O)cc(OCc2ccccc2)c1OC [IRIGENIN, DIBENZYL ETHER] — higher, 234.1 Å²
- O=c1cc(-c2ccc(O)cc2)oc2cc(O[C@@H]3O[C@H](CO)[C@@H](O)[C@H](O)[C@H]3O[C@@H]3OC[C@](O)(CO)[C@H]3O)cc(O)c12 [APIIN] — higher, 229.3 Å²
- CNC[C@H](O)[C@@H](O)[C@H](O)[C@H](O)CO [MEGLUMINE] — lower, 139 Å²
- CC(=O)[C@H]1CC[C@H]2[C@@H]3C[C@H](C)C4=CC(=O)CC[C@]4(C)[C@H]3[C@@H](O)C[C@]12C [MEDRYSONE] — higher, 183.2 Å²
- COc1cc(OC)c2ccc(=O)oc2c1 [CITROPTEN] — lower, 138.3 Å²
- CCCCCCc1ccc(O)cc1O [HEXYLRESORCINOL] — lower, 129 Å²
- Cc1cc(C)nc(NS(=O)(=O)c2ccc(N)cc2)n1 [SULFAMETHAZINE] — lower, 161.7 Å²
- C[C@](N)(Cc1ccc(O)c(O)c1)C(=O)O [METHYLDOPA] — lower, 147.6 Å²
- Cn1cnc([N+](=O)[O-])c1Sc1ncnc2nc[nH]c12 [AZATHIOPRINE] — lower, 155.1 Å²
- Oc1c(I)cc(Cl)c2cccnc12 [CLIOQUINOL] — lower, 138.2 Å²
- CC(C(=O)O)c1cccc(C(=O)c2ccccc2)c1 (configuration not stated) [KETOPROFEN] — lower, 157.5 Å²
- CC(C)C[C@H](NC(=O)[C@H](C)N)C(=O)O [ALANYL-dl-LEUCINE] — lower, 152.5 Å²
- O=C1CC[C@]23/C=C/C(=O)NCCCCNCCCNC(=O)/C=C/c4ccc(c2c4)O[C@@H]3C1 [LUNARINE] — higher, 203.4 Å²
- CNCCC=C1c2ccccc2CCc2ccccc21 [NORTRIPTYLINE] — lower, 163.1 Å²
- OC(Cn1cncn1)(Cn1cncn1)c1ccc(F)cc1F [FLUCONAZOLE] — lower, 163.4 Å²
- Oc1c(I)cc(I)c2cccnc12 [IODOQUINOL] — lower, 143.7 Å²
- C[C@]12CC[C@H]3[C@@H](CCC4=CC(=O)CC[C@@]43C)[C@@H]1CC[C@@H]2O [TESTOSTERONE] — lower, 170.6 Å²
- O=C(O)c1cccnc1C(=O)O [QUINOLINIC ACID] — lower, 130.2 Å²
- CC1(C)C=Cc2cc3ccc(=O)oc3cc2O1 [XANTHYLETIN] — lower, 148.3 Å²
- CCOC(=O)c1ccc(O)cc1 [ETHYL PARABEN] — lower, 125.4 Å²
- COc1cc(Cc2cnc(N)nc2N)cc(OC)c1OC [TRIMETHOPRIM] — higher, 171.2 Å²
- Nc1cc(-c2ccncc2)c[nH]c1=O [AMRINONE] — lower, 139 Å²

same assay, conditions: [M+Na]+; instrument: TW; calibrated with polyalanine and drug standards

Point of comparison: CC1CC(OC(=O)C(O)c2ccccc2)CC(C)(C)C1 (configuration not stated) [CYCLANDELATE], “collision cross section (N2)” value 186.2 Å². Against it:
- COc1ccc2c(c1OC)OC[C@@H](c1ccc(OC)c(OC)c1OC)C2 [DUARTIN, DIMETHYL ETHER] — lower, 183.2 Å²
- CC[C@H](C)C(=O)O[C@H]1CCC=C2C=C[C@H](C)[C@H](CC[C@@H]3C[C@@H](O)CC(=O)O3)[C@H]21 [MEVASTATIN] — higher, 198.4 Å²
- CC(C)CC(NC(=O)OCC1c2ccccc2-c2ccccc21)C(=O)O (stereo in doubt) [N- (9-FLUORENYLMETHOXYCARBONYL)-L-LEUCINE] — lower, 183.3 Å²
